For 24 molecules, IC50 results are on record in patent US9611221B2, “Histone demethylase inhibitors” (CELGENE QUANTICEL RESEARCH, INC., priority 2012, dated 2017).

Holding throughout (type): biochemical
One experiment concerns the target Jarid1B (Homo sapiens (Human), UniProt Q9UGL1). The experiment in a line: Jarid1B in vitro enzyme inhibition assay (TR-FRET). The note with it: 0.8 nM Jarid1B, 300 nM H3K4me3-biotin peptide, 2 μM alpha-ketoglutaric acid. An excerpt: (§1) This assay determines the ability of a test compound to inhibit Jarid1A, Jarid1B, and JMJD2C demethylase activity. Baculovirus expressed Jarid1A (GenBank Accession #NM_001042603, AA1-1090) was purchased from BPS Bioscience (Cat#50110). Baculovirus expressed Jarid1B (GenBank Accession #NM_006618, AA 2-751) was purchased from BPS Bioscience (Cat #50121) or custom made by MolecularThroughput. Baculovirus expressed JMJD2C (GenBank Accession #BC143571, AA 2-372) was purchased from BPS Bioscience (Cat#50105).
(§2) The ability of test compounds to inhibit the activity of Jarid1B was determined in 384-well plate format under the following reaction conditions: 0.8 nM Jarid1B, 300 nM H3K4me3-biotin labeled peptide (Anaspec cat #64357), 2 μM alpha-ketoglutaric acid in assay buffer of 50 mM HEPES, pH7.3, 0.005% Brij35, 0.5 mM TCEP, 0.2 mg/ml BSA, 50 μM sodium L-ascorbate, and 2 μM ammonium iron(II) sulfate. Reaction product was determined quantitatively by TR-FRET after the addition of detection reagent Phycolink Streptavidin-allophycocyanin (Prozyme) and Europium-anti-mono- or di-methylated histone H3 lysine 4 (H3K4me1-2) antibody (PerkinElmer) in the presence of 5 mM EDTA in LANCE detection buffer (PerkinElmer) at a final concentration of 25 nM and 1 nM, respectively.
(§3) The reaction mixture was incubated at room temperature for 30 minutes, and terminated by the addition of 6 μl of 5 mM EDTA in LANCE detection buffer containing 50 nM Phycolink Streptavidin-allophycocyanin and 2 nM Europium-anti-H3K4me1-2 antibody. Plates were read by EnVisionMultilabel Reader in TR-FRET mode (excitation at 320 nm, emission at 615 nm and 665 nm) after 1 hour incubation at room temperature. A ratio was calculated (665/615) for each well and fitted to determine inhibition constant (IC50).
A general note: TR-FRET usually uses a lanthanide donor and a delayed reading to cut background.

The target of another experiment is Jarid1A (Homo sapiens (Human), UniProt P29375). Description: Jarid1A in vitro enzyme inhibition assay (TR-FRET). The following applies: 1 nM Jarid1A, 300 nM H3K4me3-biotin peptide, 2 μM alpha-ketoglutaric acid.
Chain of Jarid1A (P29375 1-1090): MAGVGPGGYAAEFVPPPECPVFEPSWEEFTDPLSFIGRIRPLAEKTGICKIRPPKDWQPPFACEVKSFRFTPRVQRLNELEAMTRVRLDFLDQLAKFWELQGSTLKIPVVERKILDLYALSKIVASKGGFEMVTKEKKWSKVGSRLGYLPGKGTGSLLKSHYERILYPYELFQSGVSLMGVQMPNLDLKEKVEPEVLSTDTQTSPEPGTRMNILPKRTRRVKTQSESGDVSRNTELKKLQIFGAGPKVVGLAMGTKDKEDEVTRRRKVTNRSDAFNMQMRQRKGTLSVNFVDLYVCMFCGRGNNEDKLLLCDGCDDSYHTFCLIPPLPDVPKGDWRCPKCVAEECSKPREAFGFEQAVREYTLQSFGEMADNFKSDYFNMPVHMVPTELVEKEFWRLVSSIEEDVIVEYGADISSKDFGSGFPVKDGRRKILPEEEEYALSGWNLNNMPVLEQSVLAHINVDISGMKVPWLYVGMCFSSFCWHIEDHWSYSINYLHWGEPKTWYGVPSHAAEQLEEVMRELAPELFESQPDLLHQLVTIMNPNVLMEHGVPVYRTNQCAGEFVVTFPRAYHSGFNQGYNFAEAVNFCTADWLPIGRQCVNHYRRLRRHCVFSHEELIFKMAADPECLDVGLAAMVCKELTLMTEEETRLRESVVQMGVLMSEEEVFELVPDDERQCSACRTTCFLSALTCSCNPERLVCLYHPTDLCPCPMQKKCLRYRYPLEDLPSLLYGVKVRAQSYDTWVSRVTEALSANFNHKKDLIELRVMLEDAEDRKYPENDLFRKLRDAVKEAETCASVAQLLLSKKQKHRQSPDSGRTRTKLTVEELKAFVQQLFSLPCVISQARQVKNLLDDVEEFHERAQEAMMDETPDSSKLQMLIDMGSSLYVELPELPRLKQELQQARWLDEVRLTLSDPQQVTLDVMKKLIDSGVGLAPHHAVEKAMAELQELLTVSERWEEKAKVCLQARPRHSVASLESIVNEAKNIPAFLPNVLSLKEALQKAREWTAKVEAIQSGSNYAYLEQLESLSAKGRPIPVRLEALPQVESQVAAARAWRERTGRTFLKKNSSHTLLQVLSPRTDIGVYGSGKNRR
Text: as §1
as §2, with “The enzymatic assay of Jarid1A activity is based upon Time Resolved-Fluorescence Resonance Energy Transfer (TR-FRET) detection. The” for “The”, “Jarid1A” for “Jarid1B”, “1” for “0.8”, “Jarid1A,” for “Jarid1B,”
as §3

A further experiment concerns the target JMJD2C (Homo sapiens (Human), UniProt Q9H3R0). The experiment in a line: JMJD2C in vitro enzyme inhibition assay (TR-FRET). The note with it: 0.3 nM JMJD2C, 300 nM H3K9me3-biotin peptide, 2 μM alpha-ketoglutaric acid.
Text: as §1
The ability of test compounds to inhibit the activity of JMJD2C was determined in 384-well plate format under the following reaction conditions: 0.3 nM JMJD2C, 300 nM H3K9me3-biotin labeled peptide (Anaspec cat #64360), 2 μM alpha-ketoglutaric acid in assay buffer of 50 mM HEPES, pH7.3, 0.005% Brij35, 0.5 mM TCEP, 0.2 mg/ml BSA, 50 μM sodium L-ascorbate, and 2 μM ammonium iron(II) sulfate. Reaction product was determined quantitatively by TR-FRET after the addition of detection reagent Phycolink Streptavidin-allophycocyanin (Prozyme) and Europium-anti-di-methylated histone H3 lysine 9 (H3K9me2) antibody (PerkinElmer) in the presence of 5 mM EDTA in LANCE detection buffer (PerkinElmer) at a final concentration of 50 nM and 1 nM, respectively.
The reaction mixture was incubated at room temperature for 30 minutes, and terminated by the addition of 6 μl of 5 mM EDTA in LANCE detection buffer containing 100 nM Phycolink Streptavidin-allophycocyanin and 2 nM Europium-anti-H3K9me2 antibody. Plates were read by EnVisionMultilabel Reader in TR-FRET mode (excitation at 320 nm, emission at 615 nm and 665 nm) after 1 hour incubation at room temperature. A ratio was calculated (665/615) for each well and fitted to determine inhibition constant (IC50).

A word on the IC50: it is the point on the concentration scale where inhibition reaches its midpoint.

Chain of JMJD2C (Q9H3R0 2-372): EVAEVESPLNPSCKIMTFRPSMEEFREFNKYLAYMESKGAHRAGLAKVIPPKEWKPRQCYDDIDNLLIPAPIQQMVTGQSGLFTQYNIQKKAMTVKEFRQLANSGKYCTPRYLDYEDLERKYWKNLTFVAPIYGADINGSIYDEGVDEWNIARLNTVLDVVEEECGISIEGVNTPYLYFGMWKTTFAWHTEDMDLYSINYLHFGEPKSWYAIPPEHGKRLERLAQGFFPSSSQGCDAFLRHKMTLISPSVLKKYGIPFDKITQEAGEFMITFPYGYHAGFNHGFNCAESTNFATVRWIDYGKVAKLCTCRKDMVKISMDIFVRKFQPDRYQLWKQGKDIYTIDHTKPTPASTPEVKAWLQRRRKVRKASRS
Chain of Jarid1B (Q9UGL1 2-751): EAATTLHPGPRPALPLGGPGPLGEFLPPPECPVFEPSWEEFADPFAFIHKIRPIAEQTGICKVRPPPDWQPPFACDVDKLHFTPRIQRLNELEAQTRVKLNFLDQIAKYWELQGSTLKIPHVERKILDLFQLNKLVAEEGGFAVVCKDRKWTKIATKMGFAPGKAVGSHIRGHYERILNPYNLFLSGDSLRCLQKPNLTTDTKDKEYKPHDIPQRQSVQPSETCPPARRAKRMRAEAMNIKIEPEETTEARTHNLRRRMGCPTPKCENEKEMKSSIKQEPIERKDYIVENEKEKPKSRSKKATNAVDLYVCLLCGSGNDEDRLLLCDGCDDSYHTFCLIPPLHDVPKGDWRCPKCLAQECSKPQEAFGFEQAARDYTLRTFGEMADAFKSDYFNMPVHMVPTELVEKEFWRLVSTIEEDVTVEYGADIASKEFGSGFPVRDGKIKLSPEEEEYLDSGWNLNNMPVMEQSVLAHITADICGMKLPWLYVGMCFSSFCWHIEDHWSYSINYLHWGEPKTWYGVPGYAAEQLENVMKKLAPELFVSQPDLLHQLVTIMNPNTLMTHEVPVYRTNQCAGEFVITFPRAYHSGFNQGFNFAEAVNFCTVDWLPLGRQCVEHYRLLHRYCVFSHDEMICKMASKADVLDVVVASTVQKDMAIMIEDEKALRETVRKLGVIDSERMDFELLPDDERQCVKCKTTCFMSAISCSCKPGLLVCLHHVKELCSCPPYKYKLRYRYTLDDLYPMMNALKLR

With `O=C(O)c1ccncc1NCc1ccc(Cl)cc1Cl` [Example 18, 3-[(2,4-dichlorobenzyl)amino]pyridine-4-carboxylic acid], the IC50 against Jarid1B, on Jarid1A and against JMJD2C was at most 100 nM in each case.
Turning to `O=C(O)c1ccncc1NCC1COc2ccccc2O1` (stereo not drawn) [Example 44, 3-[(2,3-dihydro-1,4-benzodioxin-2-ylmethyl)amino]pyridine-4-carboxylic acid], the half-maximal inhibitory concentration (IC50) at Jarid1B, against Jarid1A and against JMJD2C was at most 100 nM throughout.
On to `O=C(O)c1ccncc1NCc1ccc(Cl)cc1O` [Example 21, 3-[(4-chloro-2-hydroxybenzyl)amino]pyridine-4-carboxylic acid], for which the IC50 against Jarid1B, against Jarid1A and against JMJD2C was at most 100 nM throughout.
Regarding `O=C(O)c1ccncc1NCc1cccc(C(F)(F)F)c1` [Example 32, 3-{[3-(trifluoromethyl)benzyl]amino}pyridine-4-carboxylic acid], the half-maximal inhibitory concentration (IC50) against Jarid1B, at Jarid1A and against JMJD2C was at most 100 nM throughout.
On to `O=C(O)c1ccncc1NC[C@@H]1CCCc2ccccc21` [Example 48, 3-{[(1R)-1,2,3,4-tetrahydronaphthalen-1-ylmethyl]amino}pyridine-4-carboxylic acid], for which the 50% inhibitory concentration (IC50) on Jarid1B, against Jarid1A and at JMJD2C was 100 to 1000 nM in each case.
On to `CC1(CNc2cnccc2C(=O)O)CCCc2ccccc21` (stereo not drawn) [Example 49, 3-{[(1-methyl-1,2,3,4-tetrahydronaphthalen-1-yl)methyl]amino}pyridine-4-carboxylic acid], for which the IC50 against Jarid1B, on Jarid1A and against JMJD2C was 100 to 1000 nM throughout.
`Cc1cccc(CNc2cnccc2C(=O)O)c1C1CC1` [Example 30, 3-[(2-cyclopropyl-3-methylbenzyl)amino]pyridine-4-carboxylic acid]: the IC50 on Jarid1B, on Jarid1A and on JMJD2C was at most 100 nM in each case.
With `Cc1ccc(CNc2cnccc2C(=O)O)o1` [Example 40, 3-{[(5-methylfuran-2-yl)methyl]amino}pyridine-4-carboxylic acid], the half-maximal inhibitory concentration (IC50) on Jarid1B, on Jarid1A and against JMJD2C was at most 100 nM throughout.
Regarding `COc1cc(Cl)ccc1CNc1cnccc1C(=O)O` [Example 20, 3-[(4-chloro-2-methoxybenzyl)amino]pyridine-4-carboxylic acid], the IC50 at Jarid1B is at most 100 nM; against Jarid1A, at most 100 nM; at JMJD2C, 100 to 1000 nM.
Take `O=C(O)c1ccncc1NCc1cccc2ccccc12` [Example 28, 3-[(naphthalene-1-ylmethyl)amino]pyridine-4-carboxylic acid]: the IC50 at Jarid1B, on Jarid1A and on JMJD2C was at most 100 nM throughout.
On to `Cc1ccc(C2CC2)c(CNc2cnccc2C(=O)O)c1` [Example 34, 3-[(2-cyclopropyl-5-methylbenzyl)amino]pyridine-4-carboxylic acid], for which the IC50 against Jarid1B was at most 100 nM; against Jarid1A, at most 100 nM; against JMJD2C, 100 to 1000 nM.
For `O=C(O)c1ccncc1NCC1CCCc2ccc(C3CC3)cc21` (stereo not drawn) [Example 53, 3-{[(7-cyclopropyl-1,2,3,4-tetrahydronaphthalen-1-yl)methyl]amino}pyridine-4-carboxylic acid], the half-inhibitory concentration (IC50) was at most 100 nM against Jarid1B, at most 100 nM at Jarid1A and 100 to 1000 nM at JMJD2C.
For `O=C(O)c1ccncc1NCc1cccc(OC(F)(F)F)c1` [Example 35, 3-{[3-(trifluoromethoxy)benzyl]amino}pyridine-4-carboxylic acid], the half-inhibitory concentration (IC50) against Jarid1B, against Jarid1A and against JMJD2C was 100 to 1000 nM each time.
Take `O=C(O)c1ccnnc1NCc1ccccc1` [Example 1, 3-(benzylamino)pyridazine-4-carboxylic acid]: the IC50 against Jarid1B is 100 to 1000 nM; against Jarid1A, at most 100 nM; at JMJD2C it was at most 100 nM.
`O=C(O)c1ccncc1NCc1ccc(F)cc1` [Example 4, 3-[(4-fluorobenzyl)amino]pyridine-4-carboxylic acid]: the IC50 at Jarid1B, against Jarid1A and against JMJD2C was at most 100 nM each time.
Regarding `Cc1ccc2c(c1)C(CNc1cnccc1C(=O)O)CCO2` (stereo not drawn) [Example 63, 3-{[(6-methyl-3,4-dihydro-2H-chromen-4-yl)methyl]amino}pyridine-4-carboxylic acid], the values for the IC50 against Jarid1B, on Jarid1A and against JMJD2C were at most 100 nM, at most 100 nM and 100 to 1000 nM, respectively.
Take `O=C(O)c1ccncc1NCC1Cc2ccccc2O1` (stereo not drawn) [Example 43, 3-[(2,3-dihydro-1-benzofuran-2-ylmethyl)amino]pyridine-4-carboxylic acid]: the 50% inhibitory concentration (IC50) against Jarid1B, against Jarid1A and on JMJD2C was at most 100 nM throughout.
As to `N#Cc1ccc(CNc2cnccc2C(=O)O)cc1` [Example 5, 3-[(4-cyanobenzyl)amino]pyridine-4-carboxylic acid], the IC50 against Jarid1B, against Jarid1A and against JMJD2C was at most 100 nM each time.
`O=C(O)c1ccncc1NCc1cccc2cc[nH]c12` [Example 29, 3-[(1H-indol-7-ylmethyl)amino]pyridine-4-carboxylic acid]: the IC50 on Jarid1B, on Jarid1A and against JMJD2C was at most 100 nM in each case.
In the case of `O=C(O)c1ccncc1NCc1ccc(Br)cc1` [Example 23, 3-[(4-bromobenzyl)amino]pyridine-4-carboxylic acid], the IC50 against Jarid1B, against Jarid1A and against JMJD2C was at most 100 nM throughout.
In the case of `O=C(O)c1ccncc1NC[C@H]1CCCc2ccccc21` [Example 47, 3-{[(1S)-1,2,3,4-tetrahydronaphthalen-1-ylmethyl]amino}pyridine-4-carboxylic acid], the 50% inhibitory concentration (IC50) was at most 100 nM at Jarid1B, at most 100 nM at Jarid1A and 100 to 1000 nM on JMJD2C.
In the case of `O=C(O)c1ccncc1NCc1coc2ccccc12` [Example 38, 3-[(1-benzofuran-3-ylmethyl)amino]pyridine-4-carboxylic acid], the half-maximal inhibitory concentration (IC50) against Jarid1B was at most 100 nM; against Jarid1A, at most 100 nM; against JMJD2C, 100 to 1000 nM.
Turning to `O=C(O)c1ccncc1NCc1ccc(C(F)(F)F)cc1C1CC1` [Example 27, 3-{[2-cyclopropyl-4-(trifluoromethl)benzyl]amino}pyridine-4-carboxylic acid], the IC50 is at most 100 nM on Jarid1B, at most 100 nM on Jarid1A and 100 to 1000 nM at JMJD2C.
Regarding `O=C(O)c1ccncc1NCc1ccccc1Nc1ccccc1` [Example 36, 3-{[2-(phenylamino)benzyl]amino}pyridine-4-carboxylic acid], the concentration for half-maximal inhibition (IC50) at Jarid1B is at most 100 nM; against Jarid1A, at most 100 nM; against JMJD2C, 100 to 1000 nM.
